Patent US8415469B2, “Compounds and methods for kinase modulation, and indications therefor” (Plexxikon Inc., priority 2005, dated 2013)

Assays:
Type in all cases: biochemical
B-Raf V600E = biological target: T1, B-Raf V600E (Homo sapiens, UniProt P15056, V600E); assay: AlphaScreen kinase assay, B-Raf V600E; conditions: read-out: IC50, activity toward kinase B-Raf V600E
T1 construct: P4254. pFastBacBD-CDC37 BRAF D437-K722-X, V600E; His6 with pFastBac HT leader (TEV site) (N); made in house; host or cells: Sf9 (baculovirus; chaperone CDC37 co-expressed)

Jnk2 = biological target: T2, Jnk2 (Homo sapiens, UniProt P45984); assay: AlphaScreen kinase assay, Jnk2; conditions: read-out: IC50, activity toward kinase Jnk2
T2 construct: purchased Roche Protein Expression Group (Indianapolis, IN)
Text: AlphaScreen assay was used to screen additional kinases. The assay is similarly dependent on the phosphorylation of a peptide substrate. In this assay, an antibody that recognizes phosphorylated substrate is bound to an acceptor bead. The peptide substrate is attached to biotin, which binds to a donor head that contains streptavidin. Thus phosphorylated substrate is bound by antibody and streptavidin, bringing the donor and acceptor heads into close proximity when kinase is not inhibited. The donor produces singlet oxygen which results in emission from the acceptor when they are in close proximity. Conversely, when kinase is inhibited, the donor and acceptor beads are not associated and the emission from the acceptor is reduced.
AlphaScreen assays were done using compounds dissolved in DMSO to a concentration of 20 mM. The compounds were diluted accordingly to the desired final concentrations in each sample well, using 1:3 serial dilution for a total of 8 concentration points.

Fms = biological target: T3, Fms (Homo sapiens, UniProt P07333); assay: AlphaScreen kinase assay, Fms; conditions: read-out: IC50, activity toward kinase Fms
T3 construct: purchased Upstate Biotechnology

Jnk1 = biological target: T4, Jnk1 (Homo sapiens, UniProt P45983); assay: AlphaScreen kinase assay, Jnk1; conditions: read-out: IC50, activity toward kinase Jnk1
T4 construct: purchased Upstate Biotechnology

B-Raf = biological target: T5, B-Raf (Homo sapiens, UniProt P15056); assay: AlphaScreen kinase assay, B-Raf; conditions: read-out: IC50, activity toward kinase B-Raf
T5 construct: purchased Upstate Biotechnology

c-Raf-1 = biological target: T6, c-Raf-1 (Homo sapiens, UniProt P04049); assay: AlphaScreen kinase assay, c-Raf-1; conditions: read-out: IC50, activity toward kinase c-Raf-1
T6 construct: purchased Upstate Biotechnology

Ret = biological target: T7, Ret (Homo sapiens, UniProt P07949); assay: AlphaScreen kinase assay, Ret; conditions: read-out: IC50, activity toward kinase Ret
T7 construct: P1378.pET-SF BI-PTP RET H661-R1012 HIS; made in house
T7 sequence (P07949 with tags, fused parts or gaps): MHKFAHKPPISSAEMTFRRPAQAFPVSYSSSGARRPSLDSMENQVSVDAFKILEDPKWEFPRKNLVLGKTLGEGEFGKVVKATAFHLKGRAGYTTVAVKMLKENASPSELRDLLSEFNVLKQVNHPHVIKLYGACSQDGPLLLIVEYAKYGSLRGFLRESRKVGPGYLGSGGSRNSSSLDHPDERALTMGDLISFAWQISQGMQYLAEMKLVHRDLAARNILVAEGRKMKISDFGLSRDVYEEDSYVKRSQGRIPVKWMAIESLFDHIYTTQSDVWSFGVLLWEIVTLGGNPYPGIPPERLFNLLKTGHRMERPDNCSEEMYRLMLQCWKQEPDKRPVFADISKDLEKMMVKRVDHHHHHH

FGFR1 = biological target: T8, FGFR1 (Homo sapiens, UniProt P11362, C488A/C584S); assay: AlphaScreen kinase assay, FGFR1; conditions: read-out: IC50, activity toward kinase FGFR
T8 construct: P1351.pET N6 BI-PTP FGFR A458-E765-X C488A, C584S; made in house; host or cells: E. coli (PTP1B co-expressed)

Jnk3 = biological target: T9, Jnk3 (Homo sapiens, UniProt P53779); assay: AlphaScreen kinase assay, Jnk3; conditions: read-out: IC50, activity toward kinase Jnk3
T9 construct: purchased Upstate Biotechnology

Kit = biological target: T10, Kit (Homo sapiens, UniProt P10721); assay: AlphaScreen kinase assay, Kit; conditions: read-out: IC50, activity toward kinase Kit
T10 construct: P1332.N6 BI PTP KIT M552-K948-X COD; His6 (N); made in house; host or cells: E. coli (PTP1B co-expressed)

Flt1 = biological target: T11, Flt1 (Homo sapiens, UniProt P17948); assay: AlphaScreen kinase assay, Flt1; conditions: read-out: IC50, activity toward kinase Flt1
T11 construct: P1826.pETN6 BI-PTP FLT1 M799-D1165-X WT; His6 (N); made in house; host or cells: E. coli (PTP1B co-expressed)
T11 sequence (P17948 with tags, fused parts or gaps): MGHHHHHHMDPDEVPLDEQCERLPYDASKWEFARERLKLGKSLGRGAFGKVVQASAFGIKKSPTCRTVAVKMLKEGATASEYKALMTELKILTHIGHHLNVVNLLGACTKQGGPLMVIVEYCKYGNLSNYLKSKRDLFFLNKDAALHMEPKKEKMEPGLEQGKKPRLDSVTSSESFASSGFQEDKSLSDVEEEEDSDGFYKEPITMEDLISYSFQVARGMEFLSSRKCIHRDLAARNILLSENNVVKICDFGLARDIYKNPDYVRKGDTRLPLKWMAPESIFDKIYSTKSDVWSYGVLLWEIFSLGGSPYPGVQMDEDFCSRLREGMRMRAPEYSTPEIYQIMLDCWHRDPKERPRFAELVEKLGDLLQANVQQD

Measured: IC50

T6 sequence (P04049 whole entry): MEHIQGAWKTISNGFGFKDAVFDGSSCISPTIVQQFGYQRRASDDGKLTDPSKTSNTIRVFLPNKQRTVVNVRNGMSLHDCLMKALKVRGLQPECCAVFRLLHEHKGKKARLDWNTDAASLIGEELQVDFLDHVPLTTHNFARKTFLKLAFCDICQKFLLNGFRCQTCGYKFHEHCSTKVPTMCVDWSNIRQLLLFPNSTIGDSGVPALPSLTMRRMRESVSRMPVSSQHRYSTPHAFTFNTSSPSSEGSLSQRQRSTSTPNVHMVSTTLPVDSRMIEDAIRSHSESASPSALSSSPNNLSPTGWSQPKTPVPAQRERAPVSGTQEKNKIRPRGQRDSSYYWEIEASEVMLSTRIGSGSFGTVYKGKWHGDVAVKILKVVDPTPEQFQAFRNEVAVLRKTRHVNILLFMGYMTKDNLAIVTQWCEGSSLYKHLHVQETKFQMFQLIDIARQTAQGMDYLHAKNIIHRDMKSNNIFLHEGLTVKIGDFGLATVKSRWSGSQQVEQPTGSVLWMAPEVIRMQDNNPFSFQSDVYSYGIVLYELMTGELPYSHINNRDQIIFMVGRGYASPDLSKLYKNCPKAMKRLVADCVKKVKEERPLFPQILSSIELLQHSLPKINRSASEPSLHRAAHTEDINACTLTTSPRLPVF
T5 sequence (P15056 whole entry): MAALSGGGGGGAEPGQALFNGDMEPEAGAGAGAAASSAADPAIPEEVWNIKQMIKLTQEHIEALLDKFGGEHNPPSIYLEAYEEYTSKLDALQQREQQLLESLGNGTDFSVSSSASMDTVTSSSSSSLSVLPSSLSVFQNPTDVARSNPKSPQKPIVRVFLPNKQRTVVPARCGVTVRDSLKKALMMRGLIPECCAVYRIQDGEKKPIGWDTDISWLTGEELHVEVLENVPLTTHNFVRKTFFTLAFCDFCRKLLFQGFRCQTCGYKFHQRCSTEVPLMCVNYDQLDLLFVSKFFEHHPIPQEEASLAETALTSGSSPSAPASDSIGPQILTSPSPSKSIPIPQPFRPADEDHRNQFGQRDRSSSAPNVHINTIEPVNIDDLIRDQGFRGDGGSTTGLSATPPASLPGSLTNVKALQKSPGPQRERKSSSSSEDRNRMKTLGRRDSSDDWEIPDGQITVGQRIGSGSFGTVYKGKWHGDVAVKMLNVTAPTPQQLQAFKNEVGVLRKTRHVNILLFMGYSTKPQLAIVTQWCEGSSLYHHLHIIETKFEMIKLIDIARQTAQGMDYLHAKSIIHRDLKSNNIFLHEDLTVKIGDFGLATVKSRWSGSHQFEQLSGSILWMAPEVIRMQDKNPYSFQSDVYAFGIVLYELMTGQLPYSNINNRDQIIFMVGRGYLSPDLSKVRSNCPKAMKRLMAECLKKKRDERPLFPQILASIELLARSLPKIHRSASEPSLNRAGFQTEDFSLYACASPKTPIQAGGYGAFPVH
T10 sequence (P10721 with tags, fused parts or gaps): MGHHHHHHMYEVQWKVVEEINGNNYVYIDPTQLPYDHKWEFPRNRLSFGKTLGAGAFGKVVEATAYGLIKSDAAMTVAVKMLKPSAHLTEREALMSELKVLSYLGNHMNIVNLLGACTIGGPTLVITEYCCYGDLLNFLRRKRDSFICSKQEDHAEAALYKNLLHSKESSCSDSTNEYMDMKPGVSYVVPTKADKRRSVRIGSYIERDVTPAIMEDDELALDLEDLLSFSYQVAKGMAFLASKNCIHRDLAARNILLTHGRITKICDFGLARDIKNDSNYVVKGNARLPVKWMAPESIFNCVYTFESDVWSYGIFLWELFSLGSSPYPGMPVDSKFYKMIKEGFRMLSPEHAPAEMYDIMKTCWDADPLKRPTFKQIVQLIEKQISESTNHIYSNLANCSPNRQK
T4 sequence (P45983 whole entry): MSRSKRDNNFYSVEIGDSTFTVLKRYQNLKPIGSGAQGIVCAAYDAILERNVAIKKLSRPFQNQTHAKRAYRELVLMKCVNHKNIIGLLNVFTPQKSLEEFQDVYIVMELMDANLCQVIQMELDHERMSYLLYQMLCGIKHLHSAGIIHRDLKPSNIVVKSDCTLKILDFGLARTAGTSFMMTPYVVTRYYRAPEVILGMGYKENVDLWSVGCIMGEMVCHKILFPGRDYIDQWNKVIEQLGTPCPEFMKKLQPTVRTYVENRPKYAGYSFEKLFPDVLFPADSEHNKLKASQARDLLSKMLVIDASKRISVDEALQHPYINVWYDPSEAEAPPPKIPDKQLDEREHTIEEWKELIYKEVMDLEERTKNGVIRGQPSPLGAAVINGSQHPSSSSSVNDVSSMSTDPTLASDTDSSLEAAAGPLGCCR
T2 sequence (P45984 whole entry): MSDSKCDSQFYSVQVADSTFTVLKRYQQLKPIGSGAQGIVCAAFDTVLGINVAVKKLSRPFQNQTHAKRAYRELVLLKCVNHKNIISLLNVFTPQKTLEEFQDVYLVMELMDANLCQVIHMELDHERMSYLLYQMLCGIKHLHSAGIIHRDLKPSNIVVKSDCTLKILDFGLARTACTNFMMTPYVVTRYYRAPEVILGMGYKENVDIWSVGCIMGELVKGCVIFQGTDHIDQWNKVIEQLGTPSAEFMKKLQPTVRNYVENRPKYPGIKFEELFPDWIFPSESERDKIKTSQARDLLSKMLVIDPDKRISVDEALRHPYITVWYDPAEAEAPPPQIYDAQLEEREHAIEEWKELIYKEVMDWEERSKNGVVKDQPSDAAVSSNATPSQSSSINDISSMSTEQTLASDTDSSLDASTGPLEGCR
T3 sequence (P07333 20-972): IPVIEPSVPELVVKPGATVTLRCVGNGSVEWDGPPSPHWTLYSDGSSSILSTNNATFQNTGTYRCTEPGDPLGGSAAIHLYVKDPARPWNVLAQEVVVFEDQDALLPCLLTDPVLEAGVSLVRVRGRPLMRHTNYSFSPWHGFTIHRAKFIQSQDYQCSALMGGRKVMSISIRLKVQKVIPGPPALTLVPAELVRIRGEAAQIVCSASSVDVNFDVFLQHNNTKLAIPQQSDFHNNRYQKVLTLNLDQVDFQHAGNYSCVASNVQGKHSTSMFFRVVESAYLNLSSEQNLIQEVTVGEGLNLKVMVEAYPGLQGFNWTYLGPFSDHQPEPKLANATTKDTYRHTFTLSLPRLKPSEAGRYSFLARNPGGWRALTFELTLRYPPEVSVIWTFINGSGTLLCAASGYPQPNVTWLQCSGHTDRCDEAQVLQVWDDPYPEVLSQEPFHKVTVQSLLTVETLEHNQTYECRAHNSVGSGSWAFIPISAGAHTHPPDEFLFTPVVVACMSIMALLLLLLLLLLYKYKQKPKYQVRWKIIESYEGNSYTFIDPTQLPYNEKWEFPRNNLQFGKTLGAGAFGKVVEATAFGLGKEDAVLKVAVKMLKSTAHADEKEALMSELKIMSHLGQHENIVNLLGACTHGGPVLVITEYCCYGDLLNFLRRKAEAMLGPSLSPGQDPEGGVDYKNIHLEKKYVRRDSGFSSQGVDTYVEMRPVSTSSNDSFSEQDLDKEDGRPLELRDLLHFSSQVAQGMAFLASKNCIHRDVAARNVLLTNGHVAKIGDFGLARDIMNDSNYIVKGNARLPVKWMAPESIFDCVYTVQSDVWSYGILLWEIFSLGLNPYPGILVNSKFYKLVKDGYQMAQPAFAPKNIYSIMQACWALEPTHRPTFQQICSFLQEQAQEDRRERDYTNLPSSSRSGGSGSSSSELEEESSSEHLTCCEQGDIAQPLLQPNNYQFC
T1 sequence (P15056 with tags, fused parts or gaps V600E): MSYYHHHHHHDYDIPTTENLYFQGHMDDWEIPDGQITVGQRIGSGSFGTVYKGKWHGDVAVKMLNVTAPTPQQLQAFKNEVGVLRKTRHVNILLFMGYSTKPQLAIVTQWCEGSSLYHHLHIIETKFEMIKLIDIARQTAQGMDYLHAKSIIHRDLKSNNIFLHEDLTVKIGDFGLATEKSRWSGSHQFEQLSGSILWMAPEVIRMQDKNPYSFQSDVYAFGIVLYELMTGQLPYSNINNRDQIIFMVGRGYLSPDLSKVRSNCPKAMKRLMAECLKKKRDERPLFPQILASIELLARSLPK
T9 sequence (P53779 whole entry): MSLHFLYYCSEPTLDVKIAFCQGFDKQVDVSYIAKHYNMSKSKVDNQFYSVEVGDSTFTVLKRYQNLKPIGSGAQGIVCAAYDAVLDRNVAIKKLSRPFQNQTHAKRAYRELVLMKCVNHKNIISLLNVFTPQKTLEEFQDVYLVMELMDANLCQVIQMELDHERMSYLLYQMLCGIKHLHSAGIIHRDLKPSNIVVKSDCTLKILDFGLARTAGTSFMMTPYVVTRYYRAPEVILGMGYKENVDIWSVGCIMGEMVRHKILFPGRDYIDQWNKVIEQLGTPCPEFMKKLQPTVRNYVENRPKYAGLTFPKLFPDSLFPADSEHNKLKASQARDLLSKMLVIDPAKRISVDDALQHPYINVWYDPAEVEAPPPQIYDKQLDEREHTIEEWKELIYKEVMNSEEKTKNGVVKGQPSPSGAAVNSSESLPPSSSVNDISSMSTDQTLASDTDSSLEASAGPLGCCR
T8 sequence (P11362 458-765 C488A/C584S): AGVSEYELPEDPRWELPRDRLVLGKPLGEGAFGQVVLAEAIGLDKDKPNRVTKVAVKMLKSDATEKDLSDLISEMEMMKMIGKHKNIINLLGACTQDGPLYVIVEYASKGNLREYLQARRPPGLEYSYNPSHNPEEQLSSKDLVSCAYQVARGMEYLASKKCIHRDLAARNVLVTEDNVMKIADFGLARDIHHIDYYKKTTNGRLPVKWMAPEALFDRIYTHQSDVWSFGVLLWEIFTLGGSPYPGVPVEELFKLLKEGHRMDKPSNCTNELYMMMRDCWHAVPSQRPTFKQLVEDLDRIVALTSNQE

O=C(Nc1ccc(C(F)(F)F)cc1)Nc1cccc(C(=O)c2c[nH]c3ncc(-c4cccnc4)cc23)c1 [Compound P-1731, 1-[3-(5-Pyridin-3-yl-1H-pyrrolo[2,3-b]pyridine-3-carbonyl)-phenyl]-3-(4-trifluoromethyl-phenyl)-urea]
≤ 10 µM: B-Raf V600E | Jnk2 | Fms | Jnk1 | B-Raf

O=C(c1cccc(O)c1F)c1c[nH]c2ncc(-c3cncnc3)cc12 [Compound P-0744, (2-fluoro-3-hydroxy-phenyl)-(5-pyrimidin-5-yl-1H-pyrrolo[2,3-b]pyridin-3-yl)-methanone]
≤ 10 µM: B-Raf V600E | c-Raf-1 | Jnk2 | Ret | FGFR1 | B-Raf

O=C(Nc1cccc(C(=O)c2c[nH]c3ncc(-c4ccc(F)cc4)cc23)c1)Nc1ccc(C(F)(F)F)cc1Cl [Compound P-1753, 1-(2-Chloro-4-trifluoromethyl-phenyl)-3-{3-[5-(4-fluoro-phenyl)-1H-pyrrolo[2,3-b]pyridine-3-carbonyl]-phenyl}-urea]
≤ 10 µM: B-Raf V600E | Jnk2 | Fms | B-Raf | Jnk3

COc1cc(NC(=O)Nc2cccc(C(=O)c3c[nH]c4ncc(-c5cccnc5)cc34)c2)cc(C(F)(F)F)c1 [Compound P-1778, 1-(3-Methoxy-5-trifluoromethyl-phenyl)-3-[3-(5-pyridin-3-yl-1H-pyrrolo[2,3-b]pyridine-3-carbonyl)-phenyl]-urea]
≤ 10 µM: B-Raf V600E | Jnk2 | Fms | Jnk1 | B-Raf

CCc1ccc(S(=O)(=O)Nc2ccc(F)c(C(=O)c3c[nH]c4ncc(Cl)cc34)c2F)cc1 [Compound P-1700, N-[3-(5-Chloro-1H-pyrrolo[2,3-b]pyridine-3-carbonyl)-2,4-difluoro-phenyl]-4-ethyl-benzenesulfonamide]
≤ 10 µM: B-Raf V600E | Jnk2 | Kit | Fms | B-Raf

O=C(Nc1cccc(C(=O)c2c[nH]c3ncc(Cl)cc23)c1)Nc1ccc(Cl)c(C(F)(F)F)c1 [Compound P-1737, 1-[3-(5-Chloro-1H-pyrrolo[2,3-b]pyridine-3-carbonyl)-phenyl]-3-(4-chloro-3-trifluoromethyl-phenyl)-urea]
≤ 10 µM: B-Raf V600E | c-Raf-1 | Jnk2 | Kit | Fms | B-Raf

O=C(Nc1cccc(C(=O)c2c[nH]c3ncc(-c4cccnc4)cc23)c1)Nc1ccc(C(F)(F)F)cc1Cl [Compound P-1727, 1-(2-Chloro-4-trifluoromethyl-phenyl)-3-[3-(5-pyridin-3-yl-1H-pyrrolo[2,3-b]pyridine-3-carbonyl)-phenyl]-urea]
≤ 10 µM: B-Raf V600E | Jnk2 | Fms | Jnk1 | B-Raf

O=C(Nc1cccc(F)c1)Nc1cccc(C(=O)c2c[nH]c3ncc(-c4cccnc4)cc23)c1 [Compound P-1730, 1-(3-Fluoro-phenyl)-3-[3-(5-pyridin-3-yl-1H-pyrrolo[2,3-b]pyridine-3-carbonyl)-phenyl]-urea]
≤ 10 µM: B-Raf V600E | Jnk2 | Fms | Jnk1 | B-Raf

O=C(Nc1ccncc1)Nc1cccc(C(=O)c2c[nH]c3ncccc23)c1 [Compound P-1760, 1-Pyridin-4-yl-3-[3-(1H-pyrrolo[2,3-b]pyridine-3-carbonyl)-phenyl]-urea]
≤ 10 µM: B-Raf V600E | Jnk2 | Fms | Jnk1 | B-Raf

O=C(Nc1cccc(C(=O)c2c[nH]c3ncccc23)c1)Nc1ccc(Cl)c(C(F)(F)F)c1 [Compound P-1711, 1-(4-Chloro-3-trifluoromethyl-phenyl)-3-[3-(1H-pyrrolo[2,3-b]pyridine-3-carbonyl)-phenyl]-urea]
≤ 10 µM: B-Raf V600E | Jnk2 | Kit | Fms | B-Raf

O=C(Nc1cccc(C(=O)c2c[nH]c3ncc(-c4cccnc4)cc23)c1)Nc1ccc(Cl)c(C(F)(F)F)c1 [Compound P-1751, 1-(4-Chloro-3-trifluoromethyl-phenyl)-3-[3-(5-pyridin-3-yl-1H-pyrrolo[2,3-b]pyridine-3-carbonyl)-phenyl]-urea]
≤ 10 µM: B-Raf V600E | Jnk2 | Fms | Jnk1 | B-Raf

COc1ccc(NC(=O)Nc2cccc(C(=O)c3c[nH]c4ncc(-c5cccnc5)cc34)c2)cc1 [Compound P-1723, 1-(4-Methoxy-phenyl)-3-[3-(5-pyridin-3-yl-1H-pyrrolo[2,3-b]pyridine-3-carbonyl)-phenyl]-urea]
≤ 10 µM: B-Raf V600E | Jnk2 | Fms | Jnk1 | B-Raf

O=C(Nc1ccc(C(=O)c2c[nH]c3ncccc23)cc1)Nc1cccc(C(F)(F)F)c1 [Compound P-1671]
≤ 10 µM: B-Raf V600E | c-Raf-1 | Jnk2 | Kit | Fms | B-Raf

O=C(Nc1ccc(F)c(Cc2c[nH]c3ncc(Cl)cc23)c1F)NC1CCCC1 [Compound P-1575, 1-[3-(5-Chloro-1H-pyrrolo[2,3-b]pyridin-3-ylmethyl)-2,4-difluoro-phenyl]-3-cyclopentyl-urea]
≤ 10 µM: B-Raf V600E | Flt1 | Jnk2 | Kit | Fms
